Assay results taken from ChEMBL document CHEMBL4732079, “Design, synthesis and antitumor evaluation of new 1,8-naphthalimide derivatives targeting nuclear DNA” (Eur J Med Chem, 2021).
pIC50: −log10 of the molar value. Calls of active or inactive are those of the source. No cut-off for these calls is given here.

Assays:
[1] = tested on: MGC-803; assay: Induction of cell cycle arrest in human MGC-803 cells assessed as accumulation of cells at G2 phase at 0.25 uM for 24 hrs (reference value: 17.61%); type: functional
[2] = tested on: SMMC-7721; assay: Antiproliferative activity against human SMMC-7721 cells by MTT assay; type: functional, cell-based
[3] = tested on: DNA; assay: Binding affinity to Escherichia coli pBR322 DNA assessed as intercalation at 10 to 100 uM by agarose gel electrophoresis assay; type: nucleic-acid assay; settings: dose 10-100 µM
[4] = tested on: SK-OV-3; assay: Antiproliferative activity against human SK-OV-3 cells by MTT assay; type: functional, cell-based
[5] = tested on: MGC-803; assay: Induction of apoptosis in human MGC-803 cells assessed as increase in Bax expression at 0.5 to 1 uM by Western blot analysis; type: functional, cell-based; settings: dose 0.5-1 µM
[6] = tested on: MGC-803; assay: Induction of apoptosis in human MGC-803 cells assessed as necrotic cells at 1 uM after 24 hrs (reference value: 0.9%); type: functional
[7] = tested on: MGC-803; assay: Induction of apoptosis in human MGC-803 cells assessed as increase in caspase-9 expression at 0.5 to 1 uM by Western blot analysis; type: functional, cell-based; settings: dose 0.5-1 µM
[8] = tested on: MGC-803; assay: Induction of apoptosis in human MGC-803 cells assessed as late apoptotic cells at 1 uM after 24 hrs (reference value: 2.6%); type: functional
[9] = tested on: MGC-803; assay: Upregulation of p21 expression in human MGC-803 cells at 0.5 to 1 uM by Western blot analysis; type: functional, cell-based; settings: dose 0.5-1 µM
[10] = tested on: MGC-803; assay: Induction of apoptosis in human MGC-803 cells assessed as increase in PARP expression at 0.5 to 1 uM by Western blot analysis; type: functional, cell-based; settings: dose 0.5-1 µM
[11] = target: T1, DNA topoisomerase 1 (Homo sapiens) (UniProt P11387); assay: Inhibition of topoisomerase 1 (unknown origin) assessed as DNA relaxation using pBR322 DNA as substrate at < 20 uM by gel electrophoresis; settings: dose microM <20
T1 sequence (whole entry): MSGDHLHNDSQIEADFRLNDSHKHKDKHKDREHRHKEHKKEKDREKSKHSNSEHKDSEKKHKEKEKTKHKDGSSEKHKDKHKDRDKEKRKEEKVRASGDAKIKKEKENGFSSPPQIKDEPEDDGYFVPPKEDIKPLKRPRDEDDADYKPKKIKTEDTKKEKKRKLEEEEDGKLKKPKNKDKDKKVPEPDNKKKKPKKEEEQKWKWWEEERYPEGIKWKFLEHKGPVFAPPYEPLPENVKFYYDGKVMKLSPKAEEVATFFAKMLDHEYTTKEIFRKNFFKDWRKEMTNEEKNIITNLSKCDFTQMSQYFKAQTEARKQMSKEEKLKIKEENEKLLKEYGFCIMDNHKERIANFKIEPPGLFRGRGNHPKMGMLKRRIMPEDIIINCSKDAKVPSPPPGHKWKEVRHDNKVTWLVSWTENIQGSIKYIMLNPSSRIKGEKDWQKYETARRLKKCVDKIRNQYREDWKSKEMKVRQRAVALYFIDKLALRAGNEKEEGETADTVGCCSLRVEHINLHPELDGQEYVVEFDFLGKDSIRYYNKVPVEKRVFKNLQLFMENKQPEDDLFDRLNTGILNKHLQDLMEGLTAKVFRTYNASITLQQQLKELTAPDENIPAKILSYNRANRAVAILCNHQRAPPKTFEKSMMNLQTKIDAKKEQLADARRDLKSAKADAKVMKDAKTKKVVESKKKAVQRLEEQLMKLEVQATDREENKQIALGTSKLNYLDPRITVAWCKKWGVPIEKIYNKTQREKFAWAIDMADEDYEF

[12] = tested on: MGC-803; assay: Induction of apoptosis in human MGC-803 cells assessed as decrease in Bcl2 expression at 0.5 to 1 uM by Western blot analysis; type: functional, cell-based; settings: dose 0.5-1 µM
[13] = tested on: MGC-803; assay: Induction of apoptosis in human MGC-803 cells assessed as viable cells at 1 uM after 24 hrs (reference value: 93.6%); type: functional; settings: read-out: Activity
[14] = tested on: MGC-803; assay: Effect on CDK2 expression in human MGC-803 cells at 0.5 to 1 uM by Western blot analysis; type: functional, cell-based; settings: dose 0.5-1 µM
[15] = tested on: DNA; assay: Induction of DNA damage in human MGC-803 cells assessed as increase in p-CHK2 levels at 0.5 to 1 uM by Western blot analysis; type: cell-based; settings: dose 0.5-1 µM
[16] = tested on: MGC-803; assay: Antiproliferative activity against human MGC-803 cells by MTT assay; type: functional, cell-based
[17] = tested on: MGC-803; assay: Antitumor activity against human MGC-803 cells xenografted in BALB/c nude mice assessed as tumor inhibitory rate at 15 mg/kg, ip measured after 21 days relative to control; type: functional; settings: Mus musculus, MGC-803, ip, 504 h, time 21 day
[18] = tested on: MGC-803; assay: Induction of cell cycle arrest in human MGC-803 cells assessed as accumulation of cells at S phase at 0.25 uM for 24 hrs (Rvb =20.23%); type: functional
[19] = tested on: MGC-803; assay: Induction of cell cycle arrest in human MGC-803 cells assessed as accumulation of cells at G2 phase at 0.5 uM for 24 hrs (reference value: 17.61%); type: functional
[20] = tested on: MGC-803; assay: Induction of apoptosis in human MGC-803 cells assessed as late apoptotic cells at 0.5 uM after 24 hrs (reference value: 2.6%); type: functional
[21] = tested on: DNA; assay: Induction of DNA damage in human MGC-803 cells assessed as long DNA tails at 1 uM after 24 hrs by comet assay; type: cell-based
[22] = tested on: MGC-803; assay: Induction of apoptosis in human MGC-803 cells assessed as early apoptotic cells at 2 uM after 24 hrs (reference value: 2.9%); type: functional
[23] = tested on: DNA; assay: Induction of DNA damage in human MGC-803 cells assessed as increase in Cdc25A levels at 0.5 to 1 uM by Western blot analysis; type: cell-based; settings: dose 0.5-1 µM
[24] = tested on: MGC-803; assay: Induction of cell cycle arrest in human MGC-803 cells assessed as accumulation of cells at S phase at 0.5 uM for 24 hrs (Rvb =20.23%); type: functional
[25] = tested on: MGC-803; assay: Induction of apoptosis in human MGC-803 cells assessed as necrotic cells at 0.5 uM after 24 hrs (reference value: 0.9%); type: functional
[26] = tested on: MGC-803; assay: Induction of cell cycle arrest in human MGC-803 cells assessed as accumulation of cells at S phase at 1 uM for 24 hrs (Rvb =20.23%); type: functional
[27] = tested on: T-24; assay: Antiproliferative activity against human T-24 cells by MTT assay; type: functional, cell-based
[28] = tested on: MGC-803; assay: Induction of apoptosis in human MGC-803 cells assessed as early apoptotic cells at 1 uM after 24 hrs (reference value: 2.9%); type: functional
[29] = tested on: MGC-803; assay: Downregulation of cyclinE expression in human MGC-803 cells at 0.5 to 1 uM by Western blot analysis; type: functional, cell-based; settings: dose 0.5-1 µM
[30] = tested on: MGC-803; assay: Induction of apoptosis in human MGC-803 cells assessed as early apoptotic cells at 0.5 uM after 24 hrs (reference value: 2.9%); type: functional
[31] = tested on: DNA; assay: Induction of DNA damage in human MGC-803 cells assessed as increase in p-ATM levels at 0.5 to 1 uM by Western blot analysis; type: cell-based; settings: dose 0.5-1 µM
[32] = tested on: MGC-803; assay: Induction of cell cycle arrest in human MGC-803 cells assessed as accumulation of cells at G2 phase at 1 uM for 24 hrs (reference value: 17.61%); type: functional

SMILES	Activity [1] [%]	pIC50 [2]	Activity [3]	pIC50 [4]	Activity [5]	Activity [6] [%]	Activity [7]	Activity [8] [%]	Activity [9]	Activity [10]	inhibition [11]	Activity [12]	viability at 1 µM [13] [%]	Activity [14]	Activity [15]	pIC50 [16]	inhibition in vivo at 15 mg/kg [17] [%]	Activity [18] [%]	Activity [19] [%]	Activity [20] [%]	further results
CN(C)CCN1C(=O)c2cccc3c(N4CCN(C(=O)c5ccccc5)CC4)c([N+](=O)[O-])cc(c23)C1=O	11.29	5.80	Active	5.73	Active	4.7	Active	11.2	Active	Active	Active	Active	66.5	Active	Active	6.06	52.8	37.8	3.14	11.6	Activity [21]: Active; Activity [22]: 32%; Activity [23]: Active; Activity [24]: 69.18%; Activity [25]: 3.4%; Activity [26]: 71.16%; pIC50 [27]: 6.38; Activity [28]: 17.5%; inhibition [29]: Active; Activity [30]: 10.1%; Activity [31]: Active; Activity [32]: 0.92%
Cc1ccc(S(=O)(=O)N2CCN(c3c([N+](=O)[O-])cc4c5c(cccc35)C(=O)N(CCN(C)C)C4=O)CC2)cc1	5.83	5.57	Active	6.49	Active	4.2	Active	9.8	Active	Active	Active	Active	72.9	Active	Active	5.85	61.7	40.4	0.19	7.6	Activity [21]: Active; Activity [22]: 16.8%; Activity [23]: Active; Activity [24]: 43.96%; Activity [25]: 4.2%; Activity [26]: 75.18%; pIC50 [27]: 6.48; Activity [28]: 13.1%; inhibition [29]: Active; Activity [30]: 9.7%; Activity [31]: Active; Activity [32]: 0%
